Assay [1] can be described thus: Inhibition of His tagged Escherichia coli ATCC 25922 DNA gyrase A expressed in Escherichia coli BL21 (DE3) pLysS cells assessed as reduction in enzyme-mediated supercoiling of relaxed plasmid DNA pNO1 after 30 mins in presence of biotinylated TFO1 by fluorescence assay.
Assay [2] has as its system Escherichia coli. The assay can be described thus: Antibacterial activity against wild type Escherichia coli ATCC 25922 by CLSI M100-S17 protocol based method. Type of assay: functional.
Assay [3] is described as follows: Inhibition of Escherichia coli DNA topoisomerase 4 assessed as reduction in decatenation activity using kinetoplast concatenated DNA as substrate after 30 mins by picogreen dye based fluorescence assay.
In assay [4] the test system is Escherichia coli. The assay can be described thus: Antibacterial activity against fluoroquinolone resistant Escherichia coli SKM18 by CLSI M100-S17 protocol based method. The format is functional.
Assay [5] deals with Escherichia coli. The assay can be described thus: Antibacterial activity against quinolone resistance Escherichia coli isolate ELZ4251 harboring gyrA/parC mutant by CLSI M100-S17 protocol based method. Type of assay: functional.
Assay [6] has as its system Klebsiella pneumoniae. The assay can be described thus: Antibacterial activity against wild type Klebsiella pneumoniae ATCC 35657 by CLSI M100-S17 protocol based method. The format is functional.
Assay [7] concerns Acinetobacter baumannii. The assay can be described thus: Antibacterial activity against fluoroquinolone resistant Acinetobacter baumannii isolate MMX2240 by CLSI M100-S17 protocol based method. Type of assay: functional.
The test system of assay [8] is Acinetobacter baumannii. Briefly: Antibacterial activity against wild type Acinetobacter baumannii ATCC BAA-747 by CLSI M100-S17 protocol based method. The format is functional.
Assay [9] relates to Escherichia coli. Briefly: Antibacterial activity against wild type Escherichia coli ATCC 25922 in presence of HSA by CLSI M100-S17 protocol based method. Type of assay: functional.
The test system of assay [10] is Escherichia coli. The assay can be described thus: Selectivity ratio of MIC for wild type Escherichia coli ATCC 25922 in presence of HSA to MIC for wild type Escherichia coli ATCC 25922. Type of assay: functional.

In brackets after ≈: the same amount, converted by molar mass.

The term IC50 denotes the point on the concentration scale where inhibition reaches its midpoint. As usually defined, the MIC is the smallest concentration in the dilution series that meets the test's criterion for growth inhibition.

Turning to `CNCc1cc2c3c(ccc2n1C)-c1[nH]c(=O)c(C(=O)O)c(O)c1CCC3`, the values for the IC50 in assay [1] and in assay [3] were 1 µM and 27.9 µM, respectively. The MIC in assay [2] is > 12.5 µg/mL; in assay [4], 6.3 µg/mL (≈ 17.1 µM).

In the case of `CC(C)NCc1cc2cc3c(cc2n1C)SCCc1c-3[nH]c(=O)c(C(=O)O)c1O`, the MIC is 3.1 µg/mL (≈ 7.5 µM) in assay [5]; 2 µg/mL (≈ 4.84 µM) in [6]; 3.9 µg/mL (≈ 9.43 µM) in assay [7]; 2 µg/mL (≈ 4.84 µM) in [8]; 2 µg/mL (≈ 4.84 µM) in assay [2]; 1 µg/mL (≈ 2.42 µM) in assay [4]. In addition, the minimal inhibitory concentration (MIC) in [9] was determined as 15.6 µg/mL. The Ratio in [10] is 8 - 16.

For the molecule `CCNCc1cc2cc3c(cc2n1C)SCCc1c-3[nH]c(=O)c(C(=O)O)c1O`, the minimal inhibitory concentration (MIC) in [5] worked out at 1.6 µg/mL (≈ 4.01 µM); in [6], 1 µg/mL (≈ 2.5 µM); in assay [7], 3.9 µg/mL (≈ 9.76 µM); in assay [8] it was 3.9 µg/mL (≈ 9.76 µM); in [2] it was 1 µg/mL (≈ 2.5 µM); in [4], 0.5 µg/mL (≈ 1.25 µM). The minimal inhibitory concentration (MIC) in [9] was 15.6 µg/mL. Moreover, in assay [10], the Ratio is recorded as 8 - 16.

With `Cc1c(-c2ccc3c(c2)cc(CN(C)C)n3C)[nH]c(=O)c(C(=O)O)c1O`, the MIC was 3.1 µg/mL (≈ 8.72 µM) in assay [5]; 6.3 µg/mL (≈ 17.7 µM) in assay [6]; 1.6 µg/mL (≈ 4.5 µM) in assay [7]; 6.3 µg/mL (≈ 17.7 µM) in assay [8]; 6.3 µg/mL (≈ 17.7 µM) in assay [2]; 1.6 µg/mL (≈ 4.5 µM) in assay [4]. For the same molecule, in assay [9], the MIC turned out to be 12.5 µg/mL.

Consider `CCNCc1cc2c3c(ccc2n1C)-c1[nH]c(=O)c(C(=O)O)c(O)c1CCC3`, for which the MIC in assay [2] was 12.5 µg/mL (≈ 32.8 µM); in [4] it was 6.3 µg/mL (≈ 16.5 µM). Moreover, the IC50 in assay [3] was found to be 19 µM.

Regarding `CCc1c(-c2ccc3c(c2)cc(CN(C)C)n3C)[nH]c(=O)c(C(=O)O)c1O`, the minimum inhibitory concentration (MIC) in assay [5] amounted to 6.3 µg/mL (≈ 17.1 µM); in assay [6], 0.78 µg/mL (≈ 2.11 µM); in [7], 3.1 µg/mL (≈ 8.39 µM); in [8], 0.78 µg/mL (≈ 2.11 µM); in assay [2], 0.39 µg/mL (≈ 1.06 µM); in assay [4], 6.3 µg/mL (≈ 17.1 µM). Also, the minimum inhibitory concentration (MIC) in assay [9] turned out to be 3.1 µg/mL. Besides, the Ratio in assay [10] was 2 - 4.

With `CNCc1cc2cc3c(cc2n1C)OCCc1c-3[nH]c(=O)c(C(=O)O)c1O`, the minimal inhibitory concentration (MIC) is > 12.5 µg/mL in [5]; 1.6 µg/mL (≈ 4.33 µM) in assay [6]; > 12.5 µg/mL in [7]; 12.5 µg/mL (≈ 33.8 µM) in assay [8]; 1.6 µg/mL (≈ 4.33 µM) in assay [2]; 0.78 µg/mL (≈ 2.11 µM) in assay [4]. Moreover, in assay [9], the MIC is 3.1 µg/mL.

Take `CNCc1cc2cc3c(cc2n1C)CCCc1c-3[nH]c(=O)c(C(=O)O)c1O`: the MIC in assay [5] amounted to 0.8 µg/mL (≈ 2.18 µM); in [6], 0.39 µg/mL (≈ 1.06 µM); in [7], 1.6 µg/mL (≈ 4.35 µM); in assay [8], 1.6 µg/mL (≈ 4.35 µM); in assay [2], 0.39 µg/mL (≈ 1.06 µM); in [4], 0.39 µg/mL (≈ 1.06 µM). The MIC in [9] was found to be 3.1 µg/mL. For the same molecule, the values for the concentration for half-maximal inhibition (IC50) in assay [1] and in [3] were 0.1 µM and 3.7 µM, respectively. In addition, the Ratio in [10] is 4 - 16.

(Values after ChEMBL document CHEMBL4190388, “Discovery and Optimization of Indolyl-Containing 4-Hydroxy-2-Pyridone Type II DNA Topoisomerase Inhibitors Active against Multidrug Resistant Gram-negative Bacteria” (J Med Chem, 2018).)
